Data reported in patent publication US20240024488A1, “COMPOUNDS AND USES THEREOF” (Foghorn Therapeutics Inc., priority 2020, published 2024).

Legend:
[1] = target: T1, HiBit-BRG1 fusion protein (Homo sapiens, UniProt P51532); assay: HiBiT-BRG1 cell-based degradation assay (Nano-Glo HiBiT Lytic Detection, 24 h); settings: HeLa cell line expressing HiBit-BRG1 and LgBit; for Dmax: read-out: BRG1 HiBit Degradation Maximum (%); for DC50: read-out: BRMG1 HiBit Degradation IC50
T1 construct: expressed in transfected cells
Procedure, shortened: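 Percent degradation derived from lytic HiBiT signal, normalized to DMSO-treated cells and to cells given 2 μM of a known BRM/BRG1 degrader. The HeLa line stably expressed HiBit-BRG1 and LgBit; treatment lasted 24 h at 5000 cells per well.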

HiBit-BRM fusion protein = target: T2, HiBit-BRM fusion protein (Homo sapiens, UniProt P51531); assay: HiBiT-BRM cell-based degradation assay (Nano-Glo HiBiT Lytic Detection, 24 h); settings: HeLa cell line expressing HiBiT-BRM; for DC50: read-out: BRM HiBit Degradation IC50
T2 construct: expressed in transfected cells
Procedure, shortened: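 Stable HiBiT-BRM HeLa line; 24 h compound exposure, top final 30 μM, 3-fold, 10 pts in duplicate. Lytic HiBiT/LgBiT luminescence readout. % degradation vs DMSO (0%) and 2 μM known BRM/BRG1 degrader (100%).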

T2 sequence (P51531 whole entry, the tested form may be a part): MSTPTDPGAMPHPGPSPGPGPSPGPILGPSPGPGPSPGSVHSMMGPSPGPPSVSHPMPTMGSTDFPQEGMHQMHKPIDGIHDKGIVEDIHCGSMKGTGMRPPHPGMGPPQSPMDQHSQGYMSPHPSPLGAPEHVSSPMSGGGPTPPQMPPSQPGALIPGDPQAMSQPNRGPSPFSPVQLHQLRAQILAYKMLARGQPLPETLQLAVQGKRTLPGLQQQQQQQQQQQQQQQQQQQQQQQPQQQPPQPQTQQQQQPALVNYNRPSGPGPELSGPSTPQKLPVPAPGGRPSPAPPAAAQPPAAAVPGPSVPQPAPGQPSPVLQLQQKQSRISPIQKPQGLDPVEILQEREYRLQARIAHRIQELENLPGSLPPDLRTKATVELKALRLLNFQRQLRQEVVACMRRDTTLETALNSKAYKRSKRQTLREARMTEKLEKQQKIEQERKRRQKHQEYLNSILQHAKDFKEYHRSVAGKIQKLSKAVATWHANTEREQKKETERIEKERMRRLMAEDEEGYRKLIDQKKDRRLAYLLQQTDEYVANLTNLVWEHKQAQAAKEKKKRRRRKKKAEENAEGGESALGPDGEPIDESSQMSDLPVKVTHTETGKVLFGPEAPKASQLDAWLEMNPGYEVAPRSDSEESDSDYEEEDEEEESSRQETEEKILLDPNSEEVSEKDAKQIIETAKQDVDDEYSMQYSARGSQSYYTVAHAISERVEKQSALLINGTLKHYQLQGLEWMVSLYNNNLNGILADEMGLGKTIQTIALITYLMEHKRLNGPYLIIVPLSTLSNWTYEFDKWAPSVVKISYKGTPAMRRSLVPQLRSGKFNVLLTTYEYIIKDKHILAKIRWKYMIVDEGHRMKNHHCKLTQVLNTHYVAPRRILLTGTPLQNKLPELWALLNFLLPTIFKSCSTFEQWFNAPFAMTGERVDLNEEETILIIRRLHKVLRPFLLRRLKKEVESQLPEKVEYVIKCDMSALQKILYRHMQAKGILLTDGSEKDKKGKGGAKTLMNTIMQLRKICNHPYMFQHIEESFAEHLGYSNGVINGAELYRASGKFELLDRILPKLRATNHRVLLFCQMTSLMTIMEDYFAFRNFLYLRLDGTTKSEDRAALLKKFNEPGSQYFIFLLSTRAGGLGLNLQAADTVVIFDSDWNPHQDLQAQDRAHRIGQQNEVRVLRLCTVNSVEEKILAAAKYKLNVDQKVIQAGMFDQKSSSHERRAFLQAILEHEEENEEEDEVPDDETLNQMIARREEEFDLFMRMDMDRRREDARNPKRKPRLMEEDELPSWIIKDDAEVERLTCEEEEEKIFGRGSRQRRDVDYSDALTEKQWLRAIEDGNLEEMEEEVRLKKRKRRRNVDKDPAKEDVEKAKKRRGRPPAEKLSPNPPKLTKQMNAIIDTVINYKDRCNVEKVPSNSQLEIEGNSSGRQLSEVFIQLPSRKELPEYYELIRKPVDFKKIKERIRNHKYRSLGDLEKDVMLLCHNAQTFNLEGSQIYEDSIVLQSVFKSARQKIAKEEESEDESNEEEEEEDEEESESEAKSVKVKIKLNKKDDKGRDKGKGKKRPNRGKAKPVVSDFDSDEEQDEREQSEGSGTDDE
T1 sequence (P51532 whole entry, the tested form may be a part): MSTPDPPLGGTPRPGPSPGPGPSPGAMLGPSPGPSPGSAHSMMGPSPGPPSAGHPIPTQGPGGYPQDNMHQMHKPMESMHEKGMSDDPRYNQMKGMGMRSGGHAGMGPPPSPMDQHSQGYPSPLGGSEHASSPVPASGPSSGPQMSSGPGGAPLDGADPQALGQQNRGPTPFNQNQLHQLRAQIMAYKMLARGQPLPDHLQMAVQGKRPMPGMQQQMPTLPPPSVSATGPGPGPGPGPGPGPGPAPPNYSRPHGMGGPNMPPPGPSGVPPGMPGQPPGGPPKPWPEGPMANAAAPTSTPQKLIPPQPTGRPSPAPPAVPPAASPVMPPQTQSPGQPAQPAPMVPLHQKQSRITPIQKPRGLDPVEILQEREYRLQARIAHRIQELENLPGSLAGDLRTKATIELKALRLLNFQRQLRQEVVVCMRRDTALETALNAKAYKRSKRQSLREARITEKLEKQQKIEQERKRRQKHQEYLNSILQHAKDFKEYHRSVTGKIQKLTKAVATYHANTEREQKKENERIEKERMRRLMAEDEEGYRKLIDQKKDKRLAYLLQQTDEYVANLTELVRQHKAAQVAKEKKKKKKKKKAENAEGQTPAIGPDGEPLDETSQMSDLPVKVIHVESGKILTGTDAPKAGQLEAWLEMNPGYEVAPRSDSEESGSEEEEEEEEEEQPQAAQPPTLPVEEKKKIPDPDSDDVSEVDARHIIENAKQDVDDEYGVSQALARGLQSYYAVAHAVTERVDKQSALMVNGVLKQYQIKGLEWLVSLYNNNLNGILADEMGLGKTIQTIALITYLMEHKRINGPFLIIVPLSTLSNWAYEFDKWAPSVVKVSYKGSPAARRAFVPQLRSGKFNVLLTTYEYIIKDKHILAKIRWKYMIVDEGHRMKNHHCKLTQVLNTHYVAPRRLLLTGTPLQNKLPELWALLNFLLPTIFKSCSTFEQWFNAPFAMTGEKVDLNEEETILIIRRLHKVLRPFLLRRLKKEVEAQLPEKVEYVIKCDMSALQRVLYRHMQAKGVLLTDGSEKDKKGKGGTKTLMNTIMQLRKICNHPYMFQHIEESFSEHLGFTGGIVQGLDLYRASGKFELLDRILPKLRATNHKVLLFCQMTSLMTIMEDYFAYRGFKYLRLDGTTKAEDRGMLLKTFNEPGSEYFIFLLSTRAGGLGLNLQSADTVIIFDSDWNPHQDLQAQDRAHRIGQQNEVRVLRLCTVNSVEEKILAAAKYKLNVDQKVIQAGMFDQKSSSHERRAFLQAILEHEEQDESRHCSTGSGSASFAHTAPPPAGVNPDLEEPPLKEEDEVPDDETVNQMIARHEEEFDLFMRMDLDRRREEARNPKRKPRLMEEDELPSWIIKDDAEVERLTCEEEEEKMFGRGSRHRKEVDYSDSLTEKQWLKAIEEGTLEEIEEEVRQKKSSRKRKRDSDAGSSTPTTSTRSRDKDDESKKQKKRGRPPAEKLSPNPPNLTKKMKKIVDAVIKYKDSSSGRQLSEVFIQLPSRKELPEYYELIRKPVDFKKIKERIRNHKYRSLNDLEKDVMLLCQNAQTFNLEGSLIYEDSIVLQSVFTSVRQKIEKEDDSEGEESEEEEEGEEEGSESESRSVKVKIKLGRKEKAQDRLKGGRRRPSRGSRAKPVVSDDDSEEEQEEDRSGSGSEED

Structure (SMILES) | Dmax [1] | BRM HiBit Degradation Maximum (%) (HiBit-BRM fusion protein) | DC50 (HiBit-BRM fusion protein) | DC50 [1]
Cc1ncsc1-c1ccc([C@H](C)NC(=O)[C@@H]2C[C@@H](O)CN2C(=O)[C@H](c2cc(C3CN(C(=O)[C@H]4CCc5[nH]c6nnc(-c7ccccc7O)cc6c5C4)C3)no2)C(C)C)cc1 (single isomer, unassigned) [Compound 153] | < 50% | C (“C” indicates maximum degradation < 50%) |  | 
Cc1ncsc1-c1ccc([C@H](C)NC(=O)[C@@H]2C[C@@H](O)CN2C(=O)[C@H](c2cc(C3CN(C(=O)[C@@H]4CCc5[nH]c6nnc(-c7ccccc7O)cc6c5C4)C3)no2)C(C)C)cc1 (single isomer, unassigned) [Compound 154] | < 50% | C (“C” indicates maximum degradation < 50%) |  | 
Cc1ncsc1-c1ccc([C@H](C)NC(=O)[C@@H]2C[C@@H](O)CN2C(=O)[C@H](c2cc(C3CCN(C(=O)[C@H]4CCc5[nH]c6nnc(-c7ccccc7O)cc6c5C4)CC3)no2)C(C)C)cc1 (single isomer, unassigned) [Compound 155] | < 50% | C (“C” indicates maximum degradation < 50%) |  | 
Cc1ncsc1-c1ccc([C@H](C)NC(=O)[C@@H]2C[C@@H](O)CN2C(=O)[C@@H](c2cc(C3CN(C(=O)[C@@H]4CCc5[nH]c6nnc(-c7ccccc7O)cc6c5C4)C3)no2)C(C)C)cc1 (single isomer, unassigned) [Compound 158] | < 50% | A (“A” indicates maximum degradation ≥ 75%) | > 100 nM | 
Cc1ncsc1-c1ccc([C@H](C)NC(=O)[C@@H]2C[C@@H](O)CN2C(=O)[C@H](c2cc(N3CC(CN4CC(c5cc6cc(-c7ccccc7O)nnc6[nH]5)C4)C3)no2)C(C)C)cc1 (single isomer, unassigned) [Compound 162] | > 50% | C (“C” indicates maximum degradation < 50%) |  | > 1000 nM
Cc1ncsc1-c1ccc([C@H](C)NC(=O)[C@@H]2C[C@@H](O)CN2C(=O)[C@@H](c2cc(N3CC(CN4CC(c5cc6cc(-c7ccccc7O)nnc6[nH]5)C4)C3)no2)C(C)C)cc1 (single isomer, unassigned) [Compound 163] | > 50% | A (“A” indicates maximum degradation ≥ 75%) | > 10 nM | > 100 nM
Cc1ncsc1-c1ccc([C@H](C)NC(=O)[C@@H]2C[C@@H](O)CN2C(=O)[C@@H](c2cc(OCCN(C)[C@H]3CCc4[nH]c5nnc(-c6ccccc6O)cc5c4C3)no2)C(C)C)cc1 (single isomer, unassigned) [Compound 165] | < 50% | A (“A” indicates maximum degradation ≥ 75%) | > 100 nM | 
Cc1ncsc1-c1ccc([C@H](C)NC(=O)[C@@H]2C[C@@H](O)CN2C(=O)[C@@H](c2cc(C3CCN(C(=O)[C@@H]4CCc5[nH]c6nnc(-c7ccccc7O)cc6c5C4)CC3)no2)C(C)C)cc1 (single isomer, unassigned) [Compound 166] | < 50% | A (“A” indicates maximum degradation ≥ 75%) | > 10 nM | > 1000 nM
Cc1ncsc1-c1ccc([C@H](C)NC(=O)[C@@H]2C[C@@H](O)CN2C(=O)[C@@H](c2cc(OCCNC(=O)[C@H]3CCc4[nH]c5nnc(-c6ccccc6O)cc5c4C3)no2)C(C)C)cc1 (single isomer, unassigned) [Compound 167] | > 50% | A (“A” indicates maximum degradation ≥ 75%) | > 100 nM | > 100 nM
Cc1ncsc1-c1ccc([C@H](C)NC(=O)[C@@H]2C[C@@H](O)CN2C(=O)[C@@H](c2cc(OCC(=O)N[C@H]3CCc4[nH]c5nnc(-c6ccccc6O)cc5c4C3)no2)C(C)C)cc1 (single isomer, unassigned) [Compound 168] | < 50% | A (“A” indicates maximum degradation ≥ 75%) | > 10 nM | 
Cc1ncsc1-c1ccc([C@H](C)NC(=O)[C@@H]2C[C@@H](O)CN2C(=O)[C@@H](c2cc(OCCNC(=O)[C@@H]3CCc4[nH]c5nnc(-c6ccccc6O)cc5c4C3)no2)C(C)C)cc1 (single isomer, unassigned) [Compound 172] | < 50% | A (“A” indicates maximum degradation ≥ 75%) | > 10 nM | 
Cc1ncsc1-c1ccc([C@H](C)NC(=O)[C@@H]2C[C@@H](O)CN2C(=O)[C@@H](c2cc(N3CCC(CN[C@@H]4CCc5[nH]c6nnc(-c7ccccc7O)cc6c5C4)CC3)no2)C(C)C)cc1 (single isomer, unassigned) [Compound 173] | > 50% | A (“A” indicates maximum degradation ≥ 75%) | > 100 nM | > 1000 nM
Cc1ncsc1-c1ccc([C@H](C)NC(=O)[C@@H]2C[C@@H](O)CN2C(=O)[C@H](c2cc(C3CN(C(=O)c4cc5cc(-c6ccccc6O)nnc5[nH]4)C3)no2)C(C)C)cc1 (single isomer, unassigned) [Compound 176] | < 50% | C (“C” indicates maximum degradation < 50%) |  | 
Cc1ncsc1-c1ccc([C@H](C)NC(=O)[C@@H]2C[C@@H](O)CN2C(=O)[C@@H](c2cc(C3CN(C(=O)c4cc5cc(-c6ccccc6O)nnc5[nH]4)C3)no2)C(C)C)cc1 (single isomer, unassigned) [Compound 178] | < 50% | C (“C” indicates maximum degradation < 50%) |  | 
Cc1ncsc1-c1ccc([C@H](C)NC(=O)[C@@H]2C[C@@H](O)CN2C(=O)[C@@H](c2cc(C3CCN(C(=O)CN4CC(c5cc6cc(-c7ccccc7O)nnc6[nH]5)C4)CC3)no2)C(C)C)cc1 (single isomer, unassigned) [Compound 179] | < 50% | A (“A” indicates maximum degradation ≥ 75%) | > 100 nM | 
Cc1ncsc1-c1ccc(CNC(=O)[C@@H]2C[C@@H](O)CN2C(=O)[C@@H](NC(=O)CCCC(=O)N[C@H]2CCc3[nH]c4nnc(-c5ccccc5O)cc4c3C2)C(C)(C)C)cc1 (single isomer, unassigned) [Compound 184] | < 50% | B (“B” indicates maximum degradation ≥ 50%) | > 1000 nM | 
Cc1ncsc1-c1ccc([C@H](C)NC(=O)[C@@H]2C[C@@H](O)CN2C(=O)[C@@H](c2cc(N3CCN(C(=O)[C@H]4CCc5[nH]c6nnc(-c7ccccc7O)cc6c5C4)CC3)no2)C(C)C)cc1 (single isomer, unassigned) [Compound 188] | > 75% | A (“A” indicates maximum degradation ≥ 75%) | > 100 nM | > 100 nM
Cc1ncsc1-c1ccc(CNC(=O)[C@@H]2C[C@@H](O)CN2C(=O)[C@@H](NC(=O)CCCNC(=O)[C@H]2CCc3[nH]c4nnc(-c5ccccc5O)cc4c3C2)C(C)(C)C)cc1 (single isomer, unassigned) [Compound 190] | < 50% | C (“C” indicates maximum degradation < 50%) |  | 
Cc1ncsc1-c1ccc(CNC(=O)[C@@H]2C[C@@H](O)CN2C(=O)[C@@H](NC(=O)CNC(=O)[C@H]2CCc3[nH]c4nnc(-c5ccccc5O)cc4c3C2)C(C)(C)C)cc1 (single isomer, unassigned) [Compound 191] | < 50% | C (“C” indicates maximum degradation < 50%) |  | 
Cc1ncsc1-c1ccc([C@H](C)NC(=O)[C@@H]2C[C@@H](O)CN2C(=O)[C@@H](c2cc(N3CCN(C(=O)[C@@H]4CCc5[nH]c6nnc(-c7ccccc7O)cc6c5C4)CC3)no2)C(C)C)cc1 (single isomer, unassigned) [Compound 192] | < 50% | A (“A” indicates maximum degradation ≥ 75%) | > 10 nM | 
Cc1ncsc1-c1ccc(CNC(=O)[C@@H]2C[C@@H](O)CN2C(=O)[C@@H](NC(=O)CCCNC(=O)[C@@H]2CCc3[nH]c4nnc(-c5ccccc5O)cc4c3C2)C(C)(C)C)cc1 (single isomer, unassigned) [Compound 196] | < 50% | B (“B” indicates maximum degradation ≥ 50%) | > 100 nM | 
Cc1ncsc1-c1ccc(CNC(=O)[C@@H]2C[C@@H](O)CN2C(=O)[C@@H](NC(=O)CNC(=O)[C@@H]2CCc3[nH]c4nnc(-c5ccccc5O)cc4c3C2)C(C)(C)C)cc1 (single isomer, unassigned) [Compound 197] | < 50% | C (“C” indicates maximum degradation < 50%) |  | 
Cc1ncsc1-c1ccc([C@H](C)NC(=O)[C@@H]2C[C@@H](O)CN2C(=O)[C@@H](c2cc(OCCN3CC(CCc4[nH]c5nnc(-c6ccccc6O)cc5c4C)C3)no2)C(C)C)cc1 (single isomer, unassigned) [Compound 198] | > 75% | A (“A” indicates maximum degradation ≥ 75%) | > 100 nM | > 100 nM
Cc1ncsc1-c1ccc([C@H](C)NC(=O)[C@@H]2C[C@@H](O)CN2C(=O)[C@@H](c2cc(OCCN[C@H]3CCc4[nH]c5nnc(-c6ccccc6O)cc5c4C3)no2)C(C)C)cc1 (single isomer, unassigned) [Compound 200] | < 50% | A (“A” indicates maximum degradation ≥ 75%) | > 10 nM | 
Cc1ncsc1-c1ccc([C@H](C)NC(=O)[C@@H]2C[C@@H](O)CN2C(=O)[C@H](c2cc(C3CCN(C(=O)c4cc5cc(-c6ccccc6O)nnc5[nH]4)CC3)no2)C(C)C)cc1 (single isomer, unassigned) [Compound 201] | < 50% | C (“C” indicates maximum degradation < 50%) |  | 
